Laboratory results published in the NIST ThermoML archive (doi:10.1016/j.jct.2011.09.008).

Assay: xn = mol fraction of the nth substance listed
Conditions: 101 kPa, Liquid, Sing-around technique in a fixed-path interferometer

CCCOCC(C)O (stereo not given) [1-propoxy-2-propanol] + O
speed of sound [m/s]
Conditions	283.15 K	288.15 K	293.15 K	298.15 K	303.15 K
x1 = 0.00326	1470.7	1487.1	1501.5	1514.2	1527.5
x1 = 0.00845	1503.1	1516.8	1528.7	1538.8	1548.3
x1 = 0.01369	1533.3	1543.7	1552.5	1560.1	1565.5
x1 = 0.01942	1563.4	1570.1	1575.7	1579.2	1581.5
x1 = 0.02453	1582.6	1585.6	1586.9	1586.7	1585.7
x1 = 0.02855	1594.9	1594	1591.7	1587.7	1582.4
x1 = 0.03532	1598	1590.9	1583.2	1575.1	1566.6
x1 = 0.04675	1577.1	1566.9	1557	1547.1	1536.8
x1 = 0.06359	1545.3	1535.2	1524.6	1513.5	1501.6
x1 = 0.08224	1520.5	1509.6	1498.1	1486	1472.6
x1 = 0.09758	1504.9	1493.2	1481	1467.8	1454
x1 = 0.1185	1487.8	1475.4	1462.3	1448.6	1434
x1 = 0.145	1470.9	1457.6	1444	1429.6	1414.6
x1 = 0.1945	1447.2	1433.1	1418.6	1403.7	1388.4
x1 = 0.2213	1437.3	1422.4	1407.9	1392.7	1377.5
x1 = 0.2686	1422.1	1406.9	1391.7	1376	1360.6
x1 = 0.3432	1402.5	1386.5	1370.8	1354.5	1338.5
x1 = 0.4424	1381.2	1364.5	1347.8	1330.9	1314.2
x1 = 0.5415	1363	1345.7	1328.4	1311	1293.7
x1 = 0.6444	1346.5	1328.6	1310.8	1293	1275.3
x1 = 0.7056	1337.3	1319.3	1301.3	1283.3	1265.3
x1 = 0.7569	1330.3	1312	1293.9	1275.7	1257.7
x1 = 0.7951	1325.2	1306.9	1288.7	1270.4	1252.4
x1 = 0.8374	1320.2	1301.4	1283.2	1264.8	1246.5
x1 = 0.88	1314.6	1296.2	1277.8	1259.4	1240.9
x1 = 0.9193	1310.3	1291.7	1273.4	1254.8	1236.5
x1 = 0.9597	1306	1287.3	1268.9	1250.2	1231.7
x1 = 1	1301.9	1283.2	1264.5	1245.8	1227.3
